Here are results for two compounds from article PMC10514461, “Characterization of a novel inhibitor for the New Delhi metallo-β-lactamase-4: Implications for drug design and combating bacterial drug resistance” (The Journal of Biological Chemistry, 2023).

Structures are written as SMILES. A value given as a limit tells only on which side of the number the result lay.

Experiment [1] relates to NDM-1. Type of experiment: biochemical. The settings on record: against the NDMs (NDM-1 and NDM-4).
Protocol: The IC50 and Ki values were determined by the direct competition between nitrocefin substrate and inhibitors under appropriately controlled experiments. Different concentrations of inhibitor ranging from 0.001 to 500 μM, a fixed concentration of 12 nM of purified protein, and 20 μM of nitrocefin substrate were used in reaction. The rate of product formation was monitored based on the absorbance at 486 nm taken at 10 s intervals for 30 min. The relative change in absorbance was evaluated as percentage inhibition, and the IC50 was determined by fitting the data to a sigmoidal dose-response curve. The enzyme inhibition constant (Ki) was derived from initial-velocity measurements by nonlinear regression via competitive-inhibition enzyme kinetics using GraphPad Prism 9.
The subject of experiment [2] is Verona-integron-encoded MBL 2. The settings on record: against Verona-integron-encoded MBL 2; cited from earlier work.
For the next experiment, the target named is T1, NDM-4 (M154L) (Klebsiella pneumoniae, UniProt C7C422, M154L).
T1 construct: The electron density for the polypeptide chain was continuous from Gly 42 to Arg 270; polyhistidine (with TEV site) (N, cleaved yes); made in house; host or cells: Rosetta2(DE3) E. coli
T1 sequence (C7C422 42-270 M154L): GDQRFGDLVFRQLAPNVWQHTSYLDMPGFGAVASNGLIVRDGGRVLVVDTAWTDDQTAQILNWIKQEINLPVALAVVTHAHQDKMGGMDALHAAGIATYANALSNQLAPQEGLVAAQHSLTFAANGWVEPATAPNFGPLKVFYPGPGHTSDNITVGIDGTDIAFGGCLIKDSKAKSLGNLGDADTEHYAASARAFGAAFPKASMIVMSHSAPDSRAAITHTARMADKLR
The experiment in a line: Steady state kinetics of nitrocefin hydrolysis, NDM-4. The settings on record: nitrocefin as substrate. Type of experiment: biochemical. Here is the method:
(§1) Nitrocefin (Cayman, CAS 41906-86-9) was used as the chromogenic substrate for all enzyme kinetic assays. The enzymatic activity of purified NDM-1 and NDM-4 was determined spectrophotometrically at room temperature in 1X PBS, pH 7. The rate of product formation was monitored based on the absorbance at 486 nm taken at 10 s intervals for 30 min. The KM and kcat values were determined from ten different concentrations of nitrocefin ranging from 0.01 μM to 250 μM with at least four independent initial-velocity measurements using 12 nM of each enzyme and fitted by nonlinear regression using Michaelis–Menten enzyme kinetics with GraphPad Prism 9 (https://www.graphpad.com/).

For experiment [3], the target named is NDM-1 (Klebsiella pneumoniae, UniProt C7C422). As to the kind of experiment: Steady state kinetics of nitrocefin hydrolysis, NDM-1. In kind it is biochemical. The settings on record: nitrocefin as substrate. As to the method: as §1
Chain of NDM-1 (Klebsiella pneumoniae, UniProt C7C422) (C7C422 42-270 limits assumed): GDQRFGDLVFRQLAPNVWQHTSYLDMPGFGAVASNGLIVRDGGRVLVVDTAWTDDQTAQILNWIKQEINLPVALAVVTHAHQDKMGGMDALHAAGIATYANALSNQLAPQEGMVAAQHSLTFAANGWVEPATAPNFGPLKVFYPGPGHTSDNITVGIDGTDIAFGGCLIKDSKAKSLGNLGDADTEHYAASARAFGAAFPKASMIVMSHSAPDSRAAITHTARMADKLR

In the case of `O=C(O)c1cccc(=S)n1O` [Compound 1, 1-hydroxypyridine-2(1H)-thione-6-carboxylic acid], the “potency over L-captopril” value in the experiment with NDM-1 [1] is over 1600 fold. Also, the “enhanced inhibition activity over parent scaffold 1,2 hydroxy pyrithione” value in experiment [2] was “more than 10 fold”.

A word on the kcat: it is the maximal rate divided by the concentration of active sites. The Km is the substrate concentration at which the rate is half of its maximum. Take `O=C(Cc1cccs1)N[C@@H]1C(=O)N2C(C(=O)O)=C(/C=C/c3ccc([N+](=O)[O-])cc3[N+](=O)[O-])CS[C@H]12` [Nitrocefin]: the kcat on NDM-4 (M154L) (NDM-4) is 70 ± 7 s⁻¹; at NDM-1 [3] (NDM-1), 86 ± 11 s⁻¹. Besides, the Km at NDM-4 (M154L) (NDM-4, 1X PBS pH 7, room temperature) was determined as 9.4 ± 0.2 µM; at NDM-1 [3] (NDM-1, 1X PBS pH 7, room temperature) it was 10.9 ± 0.6 µM.
